Reference: patent US20210388213A1, “PROCESS FOR PRODUCING AQUEOUS COATING COMPOSITIONS” (CELANESE INTERNATIONAL CORPORATION, priority 2018, published 2021)

Test system: mixture of bacteria, yeasts and fungi/moulds (inoculum)
Test: Challenge test of preserved polymer dispersions with mixed inoculum (repeated up to six cycles)
Assay type: cell-based
Details: at concentrations of <15 ppm in products such as aqueous coating compositions
Experimental: 100 g of the dispersions listed above are weighed into sterile sample bottles. To each sample 1% by weight of an inoculum is added and incubated at 30° C. for 7 days. As inoculum, a suspension in water which contains the following concentrations is used: Bacteria: 8.0×10^8−2.0×10^9 cfu/cm^3 Yeasts/moulds: 8.0×10^6−2.0×10^7 cfu/cm^3 A mixture of the following bacteria, yeasts and fungi/moulds are used for the preparation of the inoculum: Bacteria mixture of: Aeromonas hydrophila (sorbia, BAM 485) Alcaligenes faecalis (BAM 486) Providencia rettgeri (BAM 488) Pseudomonas aeruginosa (BAM 489) Pseudomonas sp (BAM 490) Escherichia coli (DSM 13631) Staphylococcus aureus (DSM 346) Micrococcus Luteus (DSM 20030) Yeast mixture of: Rhodotorula rubra (DSM 13621) Saccharomyces cerevisiae (DSM 13622) Issatchenkia orientalis (DSM 6128) Filamentous Fungy mixture of: Aspergillus terréus (DSM 13630) Geotrichum candidum (DSM 13629) Fusarium Solani (DSM 13635) After 7 days the microbial contamination remaining in the samples is determined by streaking the samples out onto Trypticase Sel Agar (TSA) and on Malt Extra Agar (MEA) as nutrient media and incubated at 30° C. for 7 days. The level of growing is measured by using a rating of 0 for no growth up to a rating of 3 for full growth. The test is passed in case no growth is observed which means a rating of 0 on TSA and MEA nutrient media. […]

How did the “protection against microbial attack” value turn out when Cn1sc(Cl)cc1=O [CIT, 5-chloro-2-methyl-4-isothiazolin-3-one] was run?
The value was “not sufficient”.
